Data on 1 compound can be found in patent US9957236B2, “Selective inhibitors interfering with fibroblast growth factor receptor and FRS2 interaction for the prevention and treatment of cancer and other diseases” (LIMITED LIABILITY COMPANY “RUSSIAN PHARMACEUTICAL …, priority 2014, dated 2018).

pIC50: −log10 of the molar value.

By pIC50 is commonly meant the IC50 on a negative log10 scale, so that one unit is a factor of ten. A low value points to a high IC50.

One assay concerns hFOB cells. Put plainly: Proliferation of hFOB cells expressing FGFR2 IIIc. It is filed as cell-based, human. Conditions: RPT835 1 micron, FGF-1 100 ng/ml. The method, then:
(§1) The research assessed the influence of inhibitor RPT835 determined by formula II of this invention, intervention with interaction of FGFR2 represented by two most frequent isoforms IIIb and IIIc with FRS2. For this, human cell line of embryonal osteoblasts (hFOB) expressing only FGFR2 […], and human cell line of breast cancer SUM-52 expressing FGFR2 IIIb (all main versions of isoform—C1, C2, C3) were chosen.
(§2) Cells were divided into the groups: • 1a) hFOB • 1b) hFOB, stimulating FGF-1 (100 ng/ml) • 1c) hFOB, cultivation with RPT835 (1 micron) and stimulation of FGF-1 (100 ng/ml) • 2a) SUM-52 • 2b) SUM-52, stimulation of FGF-1 (100 ng/ml) • 2c) SUM-52, cultivation with RPT835 (1 micron) and stimulation of FGF-1 (100 ng/ml)

The next assay relates to SUM-52 cells. Put plainly: Proliferation of SUM-52 cells expressing FGFR2 IIIb. Type of assay: cell-based, human. Conditions: SUM-52 (FGFR2 IIIb), RPT835 1 micron, FGF-1 100 ng/ml. The method, then: as §1, §2
Assay [1] concerns human ovarian cancer SKOV-3. Put plainly: Pathomorphosis of SKOV-3 ovarian tumor in nude mice. The following applies: SKOV-3 in nude mice. It is filed as in vivo. As to the method: Immunodefficient mice (Nude, age of the mice as of the treatment start is 8 weeks; nursery “Pushchino”) were subcutaneously inoculated cells of FGFR2 of expressing line of human ovarian cancer SKOV-3. When the average tumor volume of 200 mm3 was achieved, the mice were randomized into the groups of control (standard chemotherapy with paclitaxel and caroplatin) and treatment (inhibitor RPT835). There were 10 mice in each group. Inhibitor RPT835 was assigned in a dose of 50 mg/kg, daily. The tumor volume was measured twice a week. When the tumor volume reached 2,000 mm3, the mice were subjected to euthanasia. Pathomorphosis of the tumor tissue was studied.

Assay [2] concerns the target T1, FRS2α (Homo sapiens, UniProt Q8WU20).
T1 sequence (Q8WU20 1-508): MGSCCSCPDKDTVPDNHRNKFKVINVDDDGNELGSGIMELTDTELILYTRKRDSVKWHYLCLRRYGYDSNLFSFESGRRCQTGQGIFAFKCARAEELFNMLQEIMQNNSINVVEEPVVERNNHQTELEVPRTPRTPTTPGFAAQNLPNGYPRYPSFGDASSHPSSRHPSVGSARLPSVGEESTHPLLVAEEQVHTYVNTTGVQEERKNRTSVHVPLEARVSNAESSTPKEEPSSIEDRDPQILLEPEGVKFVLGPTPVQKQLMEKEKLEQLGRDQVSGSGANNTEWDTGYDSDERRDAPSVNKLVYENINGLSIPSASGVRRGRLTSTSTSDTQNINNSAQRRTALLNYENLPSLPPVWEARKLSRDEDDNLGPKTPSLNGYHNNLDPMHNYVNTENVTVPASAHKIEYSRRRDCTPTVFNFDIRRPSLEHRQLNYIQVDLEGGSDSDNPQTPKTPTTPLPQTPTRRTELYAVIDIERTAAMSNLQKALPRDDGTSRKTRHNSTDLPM
Put plainly: FRS2α phosphorylation in SUM-52 cells (Western blotting). It is filed as cell-based. Set-up: endogenous in cells; host or cells: hFOB. The following applies: SUM-52 (FGFR2 IIIb), RPT835 1 micron, FGF-1 100 ng/ml. The method, then:
as §1, §2
Background: In western blotting, separated proteins are transferred to a membrane and probed.

The target in assay [3] is T1, FRS2α. Kind of assay: FRS2α phosphorylation in breast cancer cells MDA MB 134 (FGFR1 system). It is filed as cell-based. Set-up: endogenous in cells; host or cells: MDA MB 134. Conditions: MDA MB 134 cells. The source says:
The purpose of this research was assessment of specific action of inhibitor RPT835 specified in this invention with formula II, on interaction of […] and FRS2 and assessment of influence on interaction of other types of FGFR and FRS2. For the experiment, 2 cell lines were selected: • stomach cancer KATO III, expressing FGFR2, and • breast cancer MDA MB 134, expressing FGFR1.
The research procedure was the same as in the previous examples: the cells were cultivated in presence of RPT835 followed by stimulation with FGF-2 and heparin. The other part of the cells was cultivated in presence of RPT835. Phosphorylation of FGFR1 (in breast cancer cells) and FGFR2 (in stomach cancer cells), and also FRS2a (in the both cell lines) and some intracellular kinases (in breast cancer cells) was assessed using manual and automated Western blotting.

The subject of assay [4] is SVEC-4-10 endothelial cells. Kind of assay: Crystal Violet proliferation assay, SVEC-4-10. It is filed as cell-based. The following applies: SVEC-4-10, strongly expresses FGFR2; bFGF 100 ng/ml, 7 days. The source says: (§3) This research used additional cell lines: SKOV3 (ovarian cancer, ATCC # HTB-77), HS578T (breast cancer, ATCC # HTB-126), T47D (breast cancer, ATCC #HTB-1336), modified line of non-small cells lung cancer A549, line of metastatic melanoma of skin Mel Kor (RF Patent No. 2287578), and additional study of antiangiogenic activity—cell line SVEC-4-10 (endothelial cells, ATCC #CRL-2181).
(§4) The cells were cultivated in environment RPMI-1640 (PANECO) (SKOV3, HS578T, T47D, Mel-Kor) or DMEM (PANECO) (SVEC-4-10) containing 10% of embryonal serum cattle (FCS, HyClone), 2 mM glutamine (PANECO), antibiotics (100 IU/mL penicillin and […] streptomycin (all PANECO)) at 37° C. and 5% CO2. Cells at 70-80% monolayer were used for the experiments.
(§5) The cells were planted in low density (30 t of cells/ml) in triplets on a 96-cavity plate in an environment containing 0.1% of FCS serum. […] Growth of cells was determined by the modified “Crystal Violet mitogenic method” for 7 days after the experiment start. […] The dye was dissolved in ethanol and measured on a spectrophotometer at 540-560 nm. The curve of cell proliferative activity inhibition was built by the dependence of the percent of the cell quantity (Y axis) on concentration of inhibitor RPT835 in the cavity of the plate (X axis). […]

Assay [5] relates to modified line of non-small cells lung cancer A549. Put plainly: Crystal Violet proliferation assay, modified A549. Type of assay: cell-based. Conditions: Homo sapiens; modified A549 with pronounced expression of FGFR2.
Text: as §3, §4, §5

On to `Cc1cc([N+](=O)[O-])c(NS(=O)(=O)c2cccc(C(=O)O)c2)cc1-c1cccnc1` [RPT835, 3-(N-(4-methyl-2-nitro-5-(pyridin-3-yl)phenyl)sulfamoyl)benzoic acid], for which the proliferation of cells result with hFOB cells and in the assay on SUM-52 cells was “reliably suppressed proliferation” each time. In assay [1] (50 mg/kg daily), the “part of the tumor represented by massive necroses” value is given as “over 75%”. The “pathomorphosis of the tumor tissue” value in assay [1] (RPT835 50 mg/kg daily, control standard chemotherapy with paclitaxel and caroplatin) is reported as “Pronounced therapeutic pathomorphosis”. Further, the FRS2α phosphorylation level entry on FRS2α [2] is listed as “completely suppressed the phosphorylation”. In addition, the “phosphorylation of FRS2α (system FGFR1)” value on FRS2α [3] is “did not have influence”. In addition, the “inhibition of proliferative activity” value in assay [4] is recorded as “maximum inhibiting effect”. Besides, the pIC50 in assay [5] is 8.00.
